We go through four compounds from patent publication US11834414B2, “1-methyl-4-[(4-phenylphenyl)sulfonylmethyl]cyclohexyanol and 1-methyl-4-[[4-(2-pyridyl)phenyl]sulfonylmethyl]cyclohexanol compounds and their therapeutic use” (Modern Biosciences Limited, priority 2018, dated 2023).

The structures appear in SMILES notation. Converted amounts (≈) assume the structure as drawn.

Data set [1] concerns Thp1 human monocytic cells. Briefly: Thp1 Monocyte ATP Production Assay. The note with it: for IC50: Homo sapiens, THP-1, 24 h, Thp1 cells, 24 hour incubation, ATPLite, 9-point range 10 μM to 10 nM, mean of 2 independent experiments. Type of data set: cell-based. The method, boiled down: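 Cells plated at 112500/well in glucose-free RPMI-1640 with 1% FBS and exposed to compound for 24 h at 37 °C/5% CO2. ATP quantified by luciferase luminescence (ATPlite) and expressed as % of control viability. IC50 from 4-parameter fit, mean of two experiments.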
In general terms: Cellular ATP, detected with luciferase, serves as a proxy for viable cell number.

Data set [2] can be described thus: Human hepatocyte stability. In kind it is in vitro ADME. The note with it: human, pooled human hepatocytes, human hepatocytes, 1 μM, 60 minute incubation; for hepatocyte CLint at 1 μM: read-out: Human Clint (uL/min/million cells); for half-life at 1 μM: read-out: Human t1/2. The method, boiled down: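 Compounds (1 μM final, 0.1% DMSO, 0.9% acetonitrile) were incubated in duplicate with pooled rat or human hepatocytes at 37° C, sampled at 0–60 min and quenched with methanol. Remaining parent was measured by LC-MS/MS. Elimination rate constant came from the ln(concentration)–time slope, giving t1/2 and CLint scaled to hepatocyte concentration.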

A short description of data set [3]: Aqueous solubility in FaSSIF. Type of data set: physicochemical. To be noted: pH 6.5, three replicates; for solubility at 16 h: kinetic from dmso stock. How it is done:
Aqueous solubility was measured by equilibration of compounds with fasted state simulated intestinal fluid (FaSSIF) and quantified spectrophotometrically.
Preparation of blank FaSSIF: 0.21 g of sodium hydroxide (NaOH) pellets, 1.97 g of dihydrogen sodium phosphate (NaH2PO4.2H2O) and 3.09 g of sodium chloride (NaCl) were dissolved in 400 mL of deionised water. The pH was adjusted to 6.5 using 1 M hydrochloric acid and further deionised water added to a final volume of 500 mL.
Preparation of FaSSIF: 0.056 g of SIF Powder (containing sodium taurocholate and lecithin) (Phares AG) was dissolved in 25 mL of blank FaSSIF and stirred until the powder was completely dissolved. The solution was allowed to stand for 2 hours during which it became opalescent; it was used within 24 hours. The final solution composition was characterised as follows: • Sodium taurocholate: 3 mM • Lecithin: 0.75 mM • Osmolarity: 270±10 mOsmol • pH: 6.5
The optical density was measured at the end of the incubation period for test compounds and a reference used to determine solubility. In brief, two samples were prepared for each determination: a reference sample consisting of a stock solution of test compound in DMSO diluted in system solution (a phosphate free, low absorption buffer) and propanol; and a test sample (prepared in triplicate) consisting of 0.5 mL FaSSIF spiked with test compound at 0.2 mM. Each sample was incubated at room temperature for 16 hours with constant shaking at 250 rpm. At the end of the incubation period, 0.3 mL of each sample was filtered through a pION filter plate (PION, Woburn MA), diluted 1:1 with propanol and scanned using UV spectrophotometry at λmax ([…]) using a Spectra Max Plus—Version 2.1000 (Molecular Devices, Sunnyvale, CA), with pSOL Explorer solubility determination software (pION, Woburn, MA).
FaSSIF solubility was calculated using the following formula:
[formula] • wherein: • “OD” is the optical density; • “Cr” is the concentration of the reference (33.4 μM); and • “molecular weight” is for the test compound (e.g., 381.44 for ABD735).

A further data set concerns the target CYP2C9 (Homo sapiens (Human), UniProt P11712). Nature of the data set: Human Cytochrome P450 Inhibition Assay (Bactosomes). In kind it is in vitro ADME. To be noted: recombinant Bactosomes, 10 minutes, 37° C.
Another data set concerns the target CYP3A4 (Homo sapiens (Human), UniProt P08684). The description is as above. In kind it is in vitro ADME. To be noted: recombinant Bactosomes, 10 minutes, 37° C.
The next data set addresses CYP1A2 (Homo sapiens (Human), UniProt P05177). Described as above.

Chain of CYP3A4 (P08684 whole entry): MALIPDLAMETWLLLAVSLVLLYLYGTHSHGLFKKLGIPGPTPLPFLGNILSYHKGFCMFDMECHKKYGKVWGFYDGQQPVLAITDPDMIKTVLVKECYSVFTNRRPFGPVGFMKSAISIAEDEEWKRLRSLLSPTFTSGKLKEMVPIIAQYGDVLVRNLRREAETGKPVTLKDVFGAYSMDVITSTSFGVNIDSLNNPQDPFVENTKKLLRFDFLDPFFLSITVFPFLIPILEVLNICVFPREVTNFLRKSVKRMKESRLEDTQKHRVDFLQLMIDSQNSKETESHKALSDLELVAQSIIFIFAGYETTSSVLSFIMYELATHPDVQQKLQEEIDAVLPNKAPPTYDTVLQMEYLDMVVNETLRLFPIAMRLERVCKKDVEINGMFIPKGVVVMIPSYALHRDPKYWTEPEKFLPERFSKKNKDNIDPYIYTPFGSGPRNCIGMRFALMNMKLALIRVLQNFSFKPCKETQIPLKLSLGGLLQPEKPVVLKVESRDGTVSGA
Chain of CYP2C9 (P11712 whole entry): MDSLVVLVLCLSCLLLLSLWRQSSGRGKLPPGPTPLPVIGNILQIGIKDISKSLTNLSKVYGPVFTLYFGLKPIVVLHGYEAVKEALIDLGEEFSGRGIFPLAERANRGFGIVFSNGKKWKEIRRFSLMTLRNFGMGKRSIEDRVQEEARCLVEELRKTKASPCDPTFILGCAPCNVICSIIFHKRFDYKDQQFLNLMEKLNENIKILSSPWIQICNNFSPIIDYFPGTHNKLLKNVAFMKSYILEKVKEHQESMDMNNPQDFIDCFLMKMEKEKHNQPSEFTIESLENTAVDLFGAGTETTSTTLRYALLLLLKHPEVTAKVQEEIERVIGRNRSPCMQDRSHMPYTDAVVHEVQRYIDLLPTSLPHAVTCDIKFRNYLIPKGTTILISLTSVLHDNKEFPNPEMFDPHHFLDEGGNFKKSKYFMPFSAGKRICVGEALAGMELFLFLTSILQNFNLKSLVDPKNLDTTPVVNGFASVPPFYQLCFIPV
Chain of CYP1A2 (P05177 whole entry): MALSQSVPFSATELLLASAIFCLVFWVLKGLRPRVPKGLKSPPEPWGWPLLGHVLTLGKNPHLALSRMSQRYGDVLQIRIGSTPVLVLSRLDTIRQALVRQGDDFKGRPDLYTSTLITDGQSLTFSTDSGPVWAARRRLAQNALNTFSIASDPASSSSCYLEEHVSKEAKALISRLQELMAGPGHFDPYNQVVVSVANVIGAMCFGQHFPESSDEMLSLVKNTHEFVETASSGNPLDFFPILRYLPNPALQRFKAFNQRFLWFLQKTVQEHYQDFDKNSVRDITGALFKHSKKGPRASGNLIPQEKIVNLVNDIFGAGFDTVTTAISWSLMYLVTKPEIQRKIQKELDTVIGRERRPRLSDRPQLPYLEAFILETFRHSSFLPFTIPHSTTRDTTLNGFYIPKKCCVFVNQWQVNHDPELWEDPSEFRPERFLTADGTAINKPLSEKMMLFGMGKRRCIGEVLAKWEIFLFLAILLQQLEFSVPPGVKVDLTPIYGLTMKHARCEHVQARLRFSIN

Turning to `C[C@]1(O)CC[C@@H](CS(=O)(=O)c2ccc(-c3ccc(C#N)cc3F)cc2)CC1` [CHMSA-01-A, 2-fluoro-4′-(((cis-4-hydroxy-4-methylcyclohexyl)methyl)sulfonyl)-[1,1′-biphenyl]-4-carbonitrile], the IC50 in data set [1] was 700 nM; at CYP2C9 it was 39.4 µM; at CYP3A4, over 50 µM; on CYP1A2, over 50 µM. In data set [2], the hepatocyte CLint at 1 μM is 3.7 µL/min/1e6 cells. Besides, the half-life at 1 μM in data set [2] was 355 min. This compound also returned a solubility at 16 h in data set [3] of 10 µg/mL (≈ 25.8 µM).
For `C[C@]1(O)CC[C@@H](CS(=O)(=O)c2ccc(-c3ccc(C#N)cc3F)cc2C(F)(F)F)CC1` [CHMSA-02-A, 2-fluoro-4′-(((cis-4-hydroxy-4-methylcyclohexyl)methyl)sulfonyl)-3′-(trifluoromethyl)-[1,1′-biphenyl]-4-carbonitrile], the IC50 in data set [1] is 100 nM; on CYP2C9, over 50 µM; at CYP3A4 it was over 50 µM; against CYP1A2, over 50 µM. In addition, the “potency in the Thp1 monocytic ATP assay (in words)” value in data set [1] (compared to the reference compounds) is listed as “excellent potency”. The hepatocyte CLint at 1 μM in data set [2] was under 3.3 µL/min/1e6 cells. Further, in data set [2], the half-life at 1 μM was over 412 min. Also, the concentration in solution in data set [3] (solubility at 16 h) came to 20 µg/mL (≈ 43.9 µM).
As for `C[C@]1(O)CC[C@@H](CS(=O)(=O)c2ccc(-c3ncc(F)cc3F)c(F)c2)CC1` [CHMSA-03-A, cis-4-(((4-(3,5-difluoropyridin-2-yl)-3-fluorophenyl)sulfonyl)methyl)-1-methylcyclohexan-1-ol], the IC50 in data set [1] was 700 nM; at CYP2C9, 14.7 µM; at CYP3A4 it was over 50 µM; against CYP1A2, over 50 µM. Besides, in data set [2], the hepatocyte CLint at 1 μM is under 3 µL/min/1e6 cells. Besides, the half-life at 1 μM in data set [2] is over 460 min. The compound further came in with a solubility at 16 h in data set [3] of 70 µg/mL (≈ 175 µM).
Take `C[C@]1(O)CC[C@H](NS(=O)(=O)c2ccc(-c3ccc(Cl)cc3C#N)cc2)CC1` [HMC-C-01-A, reference compound]: the IC50 in data set [1] is 630 nM; at CYP2C9, 21 µM; on CYP3A4 it was over 25 µM; against CYP1A2, 25 µM. Moreover, the hepatocyte CLint at 1 μM in data set [2] was found to be 7.6 µL/min/1e6 cells. The half-life at 1 μM in data set [2] is 154 min. For the same compound, the “Solubility” value in data set [3] (16 hours) is listed as 0.06 mg/mL (≈ 148 µM).

The IC50 is the concentration at which inhibition is half-maximal. For orientation: solubility means the concentration that dissolves in the medium under given conditions. A high value points to a readily soluble substance. One may read the Solubility as the dissolved amount per volume that the medium holds. The low end stands for little dissolved substance, the high end for much dissolved substance.
